A short description of assay [1]: Cell cycle arrest in human DU145 cells assessed as accumulation at S phase at 10 uM after 48 hrs by propidium iodide staining based flow cytometry (reference value: 8.62%). To be noted: DU-145. The class given is functional. In general terms: Flow cytometry measures light scatter and fluorescence of single cells or particles in a stream.
A short description of assay [2]: Cell cycle arrest in human DU145 cells assessed as accumulation at sub G1 phase at 10 uM after 48 hrs by propidium iodide staining based flow cytometry (reference value: 2.30%). The class given is functional. Particulars: DU-145.
The test system of assay [3] is DU-145. Description: Inhibition of colony formation in human DU145 cells after 9 days by crystal violet staining based microscopic analysis. It counts as functional, cell-based.
Assay [4] in a line: Cell cycle arrest in human DU145 cells assessed as accumulation at G0/G1 phase at 15 uM after 48 hrs by propidium iodide staining based flow cytometry (reference value: 61.28%). It counts as functional. To be noted: DU-145.
The nature of assay [5]: Cytotoxicity against human DU145 cells after 48 hrs by sulforhodamine B assay. Particulars: DU-145, 48 h. It counts as functional, cell-based. A general note: The SRB assay estimates cell density from bound dye.
For assay [6], the system named is DU-145. Description: Induction of morphological changes in human DU145 cells after 48 hrs by microscopic analysis. It counts as functional, cell-based.
The nature of assay [7]: Cell cycle arrest in human DU145 cells assessed as accumulation at S phase at 5 uM after 48 hrs by propidium iodide staining based flow cytometry (reference value: 8.62%). The class given is functional. Particulars: DU-145.
Assay [8] in a line: Cell cycle arrest in human DU145 cells assessed as accumulation at G2/M phase at 10 uM after 48 hrs by propidium iodide staining based flow cytometry (reference value: 15.81%). It counts as functional. Particulars: DU-145.
Assay [9] deals with DU-145. Kind of assay: Induction of apoptosis in human DU145 cells assessed as activation of caspase 3 using Ac-DEVD AMC as substrate at 5 to 25 uM preincubated for 48 hrs followed by substrate addition measured after 2 hrs by fluorescence analysis. The class given is functional, cell-based.
Assay [10] in a line: Cell cycle arrest in human DU145 cells assessed as accumulation at G0/G1 phase at 5 uM after 48 hrs by propidium iodide staining based flow cytometry (reference value: 61.28%). The class given is functional. Particulars: DU-145.
A short description of assay [11]: Cell cycle arrest in human DU145 cells assessed as accumulation at G0/G1 phase at 10 uM after 48 hrs by propidium iodide staining based flow cytometry (reference value: 61.28%). The class given is functional. To be noted: DU-145.
Assay [12] concerns DU-145. Description: Induction of apoptosis in human DU145 cells assessed as activation of caspase 9 using […] as substrate preincubated for 48 hrs followed by substrate addition measured after 2 hrs by fluorescence analysis. The class given is functional, cell-based.
Assay [13] is described as follows: Cell cycle arrest in human DU145 cells assessed as accumulation at G0/G1 phase at 25 uM after 48 hrs by propidium iodide staining based flow cytometry (reference value: 61.28%). The class given is functional. To be noted: DU-145.
In assay [14] the test system is A549. Kind of assay: Cytotoxicity against human A549 cells after 48 hrs by sulforhodamine B assay. The class given is functional, cell-based. Particulars: A549, 48 h.
The nature of assay [15]: Cell cycle arrest in human DU145 cells assessed as accumulation at G2/M phase at 5 uM after 48 hrs by propidium iodide staining based flow cytometry (reference value: 15.81%). Particulars: DU-145. It counts as functional.
The nature of assay [16]: Cell cycle arrest in human DU145 cells assessed as accumulation at G2/M phase at 20 uM after 48 hrs by propidium iodide staining based flow cytometry (reference value: 15.81%). It counts as functional. Particulars: DU-145.
Assay [17] is described as follows: Cell cycle arrest in human DU145 cells assessed as accumulation at sub G1 phase at 5 uM after 48 hrs by propidium iodide staining based flow cytometry (reference value: 2.30%). The class given is functional. To be noted: DU-145.
A short description of assay [18]: Cytotoxicity against mouse NIH/3T3 cells after 48 hrs by sulforhodamine B assay. To be noted: NIH3T3, 48 h.
Assay [19] can be described thus: Cell cycle arrest in human DU145 cells assessed as accumulation at G0/G1 phase at 20 uM after 48 hrs by propidium iodide staining based flow cytometry (reference value: 61.28%). The class given is functional. Particulars: DU-145.
Assay [20] can be described thus: Cell cycle arrest in human DU145 cells assessed as accumulation at sub G1 phase at 25 uM after 48 hrs by propidium iodide staining based flow cytometry (reference value: 2.30%). It counts as functional. To be noted: DU-145.
Assay [21] in a line: Cell cycle arrest in human DU145 cells assessed as accumulation at G2/M phase at 25 uM after 48 hrs by propidium iodide staining based flow cytometry (reference value: 15.81%). The class given is functional. Particulars: DU-145.
Assay [22] in a line: Cell cycle arrest in human DU145 cells assessed as accumulation at S phase at 25 uM after 48 hrs by propidium iodide staining based flow cytometry (reference value: 8.62%). It counts as functional. To be noted: DU-145.
In assay [23] the test system is DU-145. Description: Inhibition of Akt in human DU145 cells assessed as increase in p27Kip1 levels after 48 hrs by Western blot analysis. It counts as cell-based.
The subject of assay [24] is DU-145. Description: Inhibition of Akt phosphorylation in human DU145 cells after 48 hrs by Western blot analysis. It counts as cell-based. On the technique in general: A western blot detects proteins with antibodies after separation by electrophoresis.
A short description of assay [25]: Cell cycle arrest in human DU145 cells assessed as accumulation at G2/M phase at 15 uM after 48 hrs by propidium iodide staining based flow cytometry (reference value: 15.81%). It counts as functional. Particulars: DU-145.
In assay [26] the test system is DU-145. Description: Induction of apoptosis in human DU145 cells assessed as activation of caspase 8 using Ac-VETD-AMC as substrate preincubated for 48 hrs followed by substrate addition measured after 2 hrs by fluorescence analysis. It counts as functional, cell-based.
Assay [27] is described as follows: Cell cycle arrest in human DU145 cells assessed as accumulation at S phase at 15 uM after 48 hrs by propidium iodide staining based flow cytometry (reference value: 8.62%). The class given is functional. Particulars: DU-145.
Assay [28] can be described thus: Cell cycle arrest in human DU145 cells assessed as accumulation at sub G1 phase at 15 uM after 48 hrs by propidium iodide staining based flow cytometry (reference value: 2.30%). To be noted: DU-145. The class given is functional.
Assay [29] can be described thus: Cell cycle arrest in human DU145 cells assessed as accumulation at sub G1 phase at 20 uM after 48 hrs by propidium iodide staining based flow cytometry (reference value: 2.30%). It counts as functional. To be noted: DU-145.
In assay [30] the test system is MCF7. Description: Cytotoxicity against human MCF7 cells after 48 hrs by sulforhodamine B assay. The class given is functional, cell-based. Particulars: MCF7, 48 h.
Assay [31] deals with HeLa. Kind of assay: Cytotoxicity against human HeLa cells after 48 hrs by sulforhodamine B assay. It counts as functional, cell-based.
A short description of assay [32]: Cell cycle arrest in human DU145 cells assessed as accumulation at S phase at 20 uM after 48 hrs by propidium iodide staining based flow cytometry (reference value: 8.62%). It counts as functional. To be noted: DU-145.

This passage reports Activity, inhibition and IC50 results from ChEMBL document CHEMBL3797105, “Investigation of triazole-linked indole and oxindole glycoconjugates as potential anticancer agents: novel Akt/PKB signaling pathway inhibitors” (Medchemcomm, 2016).

The source made the active and inactive calls. The calls are words filed in the database; no cut-off is given here.

The IC50 is the midpoint of a concentration-inhibition curve. For `CC(=O)OC[C@H]1O[C@@H](n2cc(CN3C(=O)/C(=C/c4ccc(C)cc4)c4ccccc43)nn2)[C@H](OC(C)=O)[C@@H](OC(C)=O)[C@@H]1OC(C)=O`, the Activity in assay [1] is 7.56%; in [2], 14.4%; in assay [4], 46.6%; in assay [6], “Dose-dependent effect”; in assay [7], 6.85%; in assay [8] it was 16.7%. The Activity is 59.1% in [10]; 48.1% in assay [11]; “Dose-dependent effect” in assay [12]; 41.4% in assay [13]; 12.6% in assay [15]; 10.9% in assay [16]. The Activity in assay [17] turned out to be 7.12%; in assay [19], 40.5%; in assay [20], 37.5%; in assay [21], 9.05%; in assay [22], 4.86%; in [25], 14.9%. The Activity entry in [26] was “Dose-dependent effect”; in assay [27], 7.64%; in assay [28] it was 17.2%; in [29] it was 34.3%; in assay [32], 5.72%. The inhibition entry in assay [3] and in assay [23] was “Dose-dependent effect” throughout. The concentration for half-maximal inhibition (IC50) in assay [5] was 9.3 µM; in [14] it was 16 µM; in [18], 73.3 µM; in assay [30] it was above 100 µM; in assay [31] it was 85.6 µM. In addition, the outcome in [9] was Active. Also, in [24], the inhibition result is “Active”.

For `CC(=O)OC[C@H]1O[C@@H](n2cc(Cn3cc(/C=C/C(=O)c4ccccc4)c4ccccc43)nn2)[C@H](OC(C)=O)[C@@H](OC(C)=O)[C@@H]1OC(C)=O`, the Activity was 4.41% in [1]; 43.7% in assay [2]; 21.5% in assay [4]; “Dose-dependent effect” in assay [6]; 4.72% in assay [7]; 16.2% in assay [8]. The Activity in [10] was 75%; in assay [11] it was 21.2%; in [12] it was “Dose-dependent effect”; in [13], 12%; in assay [15], 8.22%; in [16] it was 1.87%. Moreover, the Activity in [17] is 4.53%; in assay [19] it was 12.9%; in assay [20], 84.1%; in assay [21] it was 1.01%; in [22], 0.8%; in assay [25], 11.9%. Also, the Activity result in [26] was “Dose-dependent effect”; in [27], 3.82%; in [28], 54%; in [29], 82.4%; in assay [32], 1.34%. For the same compound, the inhibition result in assay [3] and in assay [23] was “Dose-dependent effect” each time. For the same compound, the 50% inhibitory concentration (IC50) in assay [5] was 14.4 µM; in assay [14], 16.3 µM; in assay [18], above 200 µM; in assay [30] it was 23.9 µM; in assay [31] it was 33 µM. The outcome in [9] was Active. For the same compound, the inhibition result in assay [24] was “Active”.

Consider `CC(=O)OC[C@H]1O[C@@H](n2cc(CN3C(=O)/C(=C/c4cccs4)c4ccccc43)nn2)[C@H](OC(C)=O)[C@@H](OC(C)=O)[C@@H]1OC(C)=O`, for which the IC50 worked out at 23.4 µM in assay [5]; 20.8 µM in [14]; 48.1 µM in [18]; 28.1 µM in [30]; 36.9 µM in assay [31].

Take `CC(=O)OC[C@H]1O[C@@H](n2cc(CN3C(=O)/C(=C/c4ccco4)c4ccccc43)nn2)[C@H](OC(C)=O)[C@@H](OC(C)=O)[C@@H]1OC(C)=O`: the IC50 turned out to be 10 µM in assay [5]; 14.5 µM in assay [14]; 31.8 µM in assay [18]; 29.1 µM in [30]; 29.9 µM in assay [31].
